Assay results from ChEMBL document CHEMBL5352449, “Exploration and biological evaluation of 7-methoxy-3-methyl-1H-chromeno[4,3-c]pyrazol-4-one as an activating transcription factor 3 inducer for managing metabolic syndrome” (Eur J Med Chem, 2023).
Activity calls are given as the source filed them. No cut-off for these calls is given here.

How the values were obtained:
[1] = Induction of AFT3 gene expression in mouse 3T3-L1 cells assessed as relative gene expression level at 50 uM incubated for 8 days by real time-PCR analysis (reference value: 1.00); assay type: functional; conditions: time 8 day
3T3-L1 [2] = assay: Downregulation of lipid accumulation in mouse 3T3-L1 pre-adipocyte model at 50 to 100 uM incubated for […] by Oil Red O staining based analysis; assay type: functional, cell-based; conditions: dose 50-100 µM
3T3-L1 [3] = assay: Induction of AFT3 expression in mouse 3T3-L1 cells at 50 to 100 uM incubated for 6 days by Western blot analysis; assay type: functional, cell-based; conditions: dose 50-100 µM, time 6.0 day
[4] = (§1) Cytotoxicity against mouse 3T3-L1 adipocytes assessed as reduction in cell viability; assay type: toxicity, cell-based; conditions: 3T3-L1 adipocytes
3T3-L1 [5] = assay: as §1; assay type: toxicity, cell-based; conditions: 3t3-l1
Mus musculus [6] = assay: Hepatoprotective activity in high fat diet induced C57BL/6 mouse assessed as reduction in GOT level at 40 mg/kg administered thrice weekly; assay type: functional, organism-based
Mus musculus [7] = organism: Mus musculus; assay: Inhibition of high fat diet induced metabolic disturbance in C57BL/6 mouse model assessed as reduction in hypertrophic eWAT adipocytes by H and E staining based analysis; assay type: functional, cell-based
Mus musculus [8] = organism: Mus musculus; assay: Anti-hyperglycemic activity in 16 hrs overnight fasted high fat diet induced C57BL/6 mouse assessed as reduction in glucose intolerance measured at upto 120 mins; assay type: functional, organism-based
Mus musculus [9] = organism: Mus musculus; assay: Anti-hyperglycemic activity in 16 hrs overnight fasted high fat diet induced C57BL/6 mouse assessed as reduction in insulin resistance measured at upto 120 mins; assay type: functional, organism-based
Mus musculus [10] = assay: Hepatoprotective activity in high fat diet induced C57BL/6 mouse assessed as reduction in GPT level at 40 mg/kg administered thrice weekly; assay type: functional, organism-based
Mus musculus [11] = organism: Mus musculus; assay: Inhibition of high fat diet induced metabolic disturbance in C57BL/6 mouse model assessed as reduction in hypertrophic iWAT adipocytes by H and E staining based analysis; assay type: functional, cell-based
[12] = Inhibition of high fat diet induced metabolic disturbance in C57BL/6 mouse model assessed as reduction in body weight at 40 mg/kg, ip administered 3 times weekly for 10 weeks (reference value: 34.86 +/-[…]); assay type: functional
Mus musculus [13] = assay: Inhibition of high fat diet induced metabolic disturbance in C57BL/6 mouse model assessed as reduction in epididymal white adipose tissue weight at 40 mg/kg, ip; assay type: functional, organism-based
Mus musculus [14] = assay: Inhibition of high fat diet induced metabolic disturbance in C57BL/6 mouse model assessed as reduction in size of epididymal white adipose tissue at 40 mg/kg, ip; assay type: functional, organism-based
Mus musculus [15] = assay: Inhibition of high fat diet induced metabolic disturbance in C57BL/6 mouse model assessed as reduction in inguinal white adipose tissue weight at 40 mg/kg, ip; assay type: functional, organism-based
Mus musculus [16] = assay: Protection against hyperlipidemia in high fat diet-fed C57BL/6 mouse model assessed as reduction in total plasma cholesterol level at 40 mg/kg administered thrice weekly; assay type: functional, organism-based
Mus musculus [17] = assay: Inhibition of high fat diet induced metabolic disturbance in C57BL/6 mouse model assessed as reduction in […] adipose tissue weight at 40 mg/kg, ip; assay type: functional, organism-based
Mus musculus [18] = assay: Protection against hyperlipidemia in high fat diet-fed C57BL/6 mouse model assessed as reduction in hypo-triglyceridemic level at 40 mg/kg administered thrice weekly; assay type: functional, organism-based
Mus musculus [19] = assay: Reduction in hepatic steatosis in high fat diet induced metabolic disturbance in C57BL/6 mouse model at 40 mg/kg, ip by hematoxylin and eosin staining based assay; assay type: functional, organism-based

Compound | Activity [1] | further results
O=c1oc2c3ccccc3ccc2c2occ(CO)c12 | 1.39 | –
Cc1[nH]nc(-c2ccc3ccccc3c2O)c1C(=O)O | 1.2 | –
Cc1n[nH]c2c1c(=O)oc1c3ccccc3ccc21 | 1.84 | –
COc1cccc2c1oc(=O)c1c(C)n[nH]c12 | 4.78 | Activity (3T3-L1 [2]): Active; Activity (3T3-L1 [3]): Active; CC50 [4]: > 100 µM
COc1ccc(-c2n[nH]c(C)c2C(=O)O)c(O)c1 | 1.07 | –
O=c1oc2cc(Br)ccc2c2c1C(O)(C(F)(F)F)CO2 (centres undefined) | 1.08 | –
O=c1oc2cc(O)ccc2c2c1C(O)(C(F)(F)F)CO2 (centres undefined) | 0.99 | –
OCc1c(C(F)(F)F)coc1-c1ccc2ccccc2c1O | 1.41 | –
COc1ccc2c(c1)oc(=O)c1c(C)onc12 | 1.62 | –
Cc1n[nH]c2c1c(=O)oc1cc(Br)ccc12 | 2.12 | –
O=c1oc2cc(Br)ccc2c2[nH]nc(C(F)(F)F)c12 | 7.31 | Activity (3T3-L1 [5]): Toxic
COc1ccc2c(c1)oc(=O)c1c(C(F)(F)F)n[nH]c12 | 1.55 | –
C[C@@H]1c2c(c3ccc4ccccc4c3oc2=O)O[C@@H]1C | 2.1 | Activity (Mus musculus [6]): inactive; inhibition (Mus musculus [7]): Active; Activity (Mus musculus [8]): Active; Activity (Mus musculus [9]): Active; Activity (Mus musculus [10]): inactive; inhibition (Mus musculus [11]): Active; Activity [12]: 30.5 g; inhibition (Mus musculus [13]): Active; inhibition (Mus musculus [14]): Active; inhibition (Mus musculus [15]): Active; Activity (Mus musculus [16]): Active; inhibition (Mus musculus [17]): Active
Cn1ncc2c3ccc4ccccc4c3oc(=O)c21 | 1.44 | –
COc1ccc2c(c1)oc(=O)c1c(C3CC3)coc12 | 1.96 | –
Cc1coc2c1c(=O)oc1cc(Br)ccc12 | 1.28 | –

Compound | Activity [1] | further results
Cc1coc2c1c(=O)oc1c3ccccc3ccc21 | 1.94 | –
O=C(O)c1coc2c1c(=O)oc1c3ccccc3ccc21 | 1.06 | –
Cc1ccc2c(c1)oc(=O)c1c(C)n[nH]c12 | 1.38 | –
COc1ccc2c(c1)oc(=O)c1c(C)n[nH]c12 | 4.29 | Activity (Mus musculus [6]): inactive; Activity (Mus musculus [18]): Active; inhibition (Mus musculus [7]): Active; Activity (Mus musculus [8]): Active; Activity (3T3-L1 [3]): Active; Activity (Mus musculus [19]): Active; Activity (Mus musculus [9]): Active; Activity (Mus musculus [10]): Active; inhibition (Mus musculus [11]): Active; Activity [12]: 30 g; inhibition (Mus musculus [13]): Active; inhibition (Mus musculus [14]): Active; inhibition (Mus musculus [15]): Active; CC50 [4]: > 100 µM; Activity (Mus musculus [16]): Active; inhibition (Mus musculus [17]): Active
COc1ccc2c3c(c(=O)oc2c1)C(O)(C(F)(F)F)CO3 (centres undefined) | 1.39 | –
CC1(C)Oc2c(c(=O)oc3c2ccc2ccccc23)C1(C)C | 3.22 | –
COc1cccc2c1oc(=O)c1c(C(F)(F)F)n[nH]c12 | 1.81 | –
COc1ccc2c(c1)oc(=O)c1c(C(F)(F)F)coc12 | 2.8 | –
O=c1oc2cc(OCc3ccncc3)ccc2c2occ(C(F)(F)F)c12 | 1.23 | –
O=c1oc2c3ccccc3ccc2c2[nH]nc(C(F)(F)F)c12 | 1.62 | –
O=c1oc2c3ccccc3ccc2c2occ(C3CC3)c12 | 2.92 | –
COc1cccc2oc(=O)c3c(C)n[nH]c3c12 | 0.98 | –
O=c1oc2c(ccc3ccccc32)c2c1C(O)(C(F)(F)F)CO2 (centres undefined) | 2.19 | –
O=c1oc2cc(O)ccc2c2occ(C(F)(F)F)c12 | 1.4 | –
O=c1oc2c3ccccc3ccc2c2occ(C(F)(F)F)c12 | 1.44 | –
Cc1n[nH]c2c1c(=O)oc1cc(F)ccc12 | 1.46 | –
